What was measured:
Assay type in all cases: cell-based
[1] = test system: white spruce somatic embryos; assay: Lipid (TL, TAG) content and fatty acid composition of somatic embryos; settings: 7.5% PEG, 8 weeks; for Fatty acid composition of TAG (%) 18:2^b: FA col 7/9; for Fatty acid composition of TAG (%) ΣC-20, 22^c: FA col 9/9
Procedure: Experiments were set up to observe the effects of different culture conditions on somatic embryo lipid biosynthesis. […] Sigma, St Louis, USA). […] Somatic embryos were maintained on these media for 4 weeks in the dark prior to lipid analysis. […] The lipid contents of immature somatic embryos from suspension culture were also determined. Investigations were conducted to observe the effects of different ABA concentrations, in the presence of PEG, on lipid biosynthesis. […] Matured somatic embryos were transferred on their filter-paper supports to unsealed petri dishes which were then placed within the 81% r.h. desiccator. Total secondary desiccation treatment time was 2 weeks. […] Results were compared to those of somatic embryos matured under the same conditions but not further desiccated. The whole white spruce seeds, isolated zygotic embryos, somatic embryos from the various treatments, and regenerated plantlets and zygotic seedlings were counted, blotted dry, and fresh weights determined. The samples were then placed in an oven at 80° C. for 24 h and dry weights recorded. Lipids were extracted from fresh tissues by the hexane/isopropane method of Hara and Radin (1978), after first placing the samples in boiling isopropane for 10 min. TAGs were separated from total lipid extracts by thin layer chromatography using […] 60 plates (Mandel Scientific Co., Toronto, Canada). […] TAGs were identified using authentic standards and scraped from the plates using a razor blade. Fatty acid methyl esters ([…] prepared from TAGs and total lipid extracts, as previously described (Pomeroy et al. 1991). […] Each lipid extract sample was divided into 2-3 replicates for analysis, and experiments were repeated three times. Results shown are means of one experiment.

[2] = test system: white spruce somatic embryos; assay: Molecular size threshold of solutes for promoting maturation; settings: 20 μM ABA; for Mature embryos per replicate (± SE): solute 7.5% added to 3% sucrose base, 9 weeks; for recovery of mature embryos: solute at 2.5 and 5% (w/v), 3% sucrose base
Procedure: In order to determine the effective molecular weight and size range of solutes that promote the maturation of immature white spruce somatic embryos, they were matured in half-strength LP maturation medium containing a range of different solutes of differing molecular weight. Five replicates were prepared per treatment, and treatments were repeated twice. […] The treatment time was 9 weeks. […] The somatic embryos remained wet throughout the maturation treatment which led to poorly formed embryos at low frequency. […] For all treatments, only normal looking cotyledonary stage opaque white embryos were scored and used for lipid analyses. Levels of lipid triacylglycerols (TAGs) were analyzed as described later and results provided are means of two replicates.

[3] = test system: white spruce somatic embryos; assay: Somatic embryo maturation with PEG-4000 (maturation frequency); settings: preliminary experiments
Procedure: Maturation of somatic embryos was carried out using methods modified from Attree et al. (1990). Suspension cultured somatic embryos were washed and resuspended (20% w/v) in half-strength PGR-free BM containing 3% sucrose, to remove the previous PGRs, then 0.75 ml aliquots were pipetted onto filter paper supports (Whatman no. 2) on the surface of maturation medium. The supports facilitated subsequent transfers to fresh media. To determine the mean number of somatic embryos plated, 10 μl samples of the 20% suspension were stained with acetocarmine (B.D.H.) and counted (repeated 15 times). The plated somatic embryos were maintained on the maturation medium for 4 weeks in the dark. To test the effect of increased osmoticum, the following concentrations of PEG-4000 (Fluka AG) were included in the maturation medium; 0, 2.5, 5.0, 7.5 and 10% (w/v) (25 replicates per treatment). Maturation frequencies per treatment were calculated as the percent mean number of somatic embryos that matured to normal-looking cotyledonary embryos. Maturation frequency results are shown in FIG. 1 (±confidence limits, P=0.05)
The application of PEG-4000 in the presence of 16 μM ABA for 28 d promoted the maturation of white spruce somatic embryos (FIG. 1). The mean number of immature somatic embryos plated per replicate was 560, and maturation results are based upon a total of 4087 mature embryos recovered. […]

[4] = ABA 12 μM, desiccated (D) 2 weeks 81% r.h.
[5] = ABA 16 μM, desiccated (D) 2 weeks 81% r.h.
[6] = ABA 24 μM, desiccated (D) 2 weeks 81% r.h.
[7] = ABA 32 μM, desiccated (D) 2 weeks 81% r.h.

## CC1=CC(=O)CC(C)(C)C1(O)/C=C/C(C)=C\C(=O)O (racemic) [ABA, abscisic acid]
[1]; [4]
  TAG % d wt: 26 % d wt
  TAG μg (embryo)^−1: 186.6 μg (embryo)^−1
  TAG/TL %: 85%
  TL % d wt: 31 % d wt
  TL μg (embryo)^−1: 220 μg (embryo)^−1
[1]; ABA 12 μM, hydrated (H)
  TAG % d wt: 14 % d wt
  TAG μg (embryo)^−1: 116 μg (embryo)^−1
  TAG/TL %: 79%
  TL % d wt: 18 % d wt
  TL μg (embryo)^−1: 146 μg (embryo)^−1
[1]; [5]
  TAG % d wt: 28 % d wt
  TAG μg (embryo)^−1: 214 μg (embryo)^−1
  TAG/TL %: 82%
  TL % d wt: 35 % d wt
  TL μg (embryo)^−1: 260 μg (embryo)^−1
[1]; ABA 16 μM, hydrated (H)
  TAG % d wt: 17 % d wt
  TAG μg (embryo)^−1: 143 μg (embryo)^−1
  TAG/TL %: 80%
  TL % d wt: 22 % d wt
  TL μg (embryo)^−1: 179 μg (embryo)^−1
[1]; [6]
  TAG % d wt: 30 % d wt
  TAG μg (embryo)^−1: 186.2 μg (embryo)^−1
  TAG/TL %: 80%
  TL % d wt: 37 % d wt
  TL μg (embryo)^−1: 232.5 μg (embryo)^−1
[1]; ABA 24 μM, hydrated (H)
  TAG % d wt: 20 % d wt
  TAG μg (embryo)^−1: 131 μg (embryo)^−1
  TAG/TL %: 77%
  TL % d wt: 26 % d wt
  TL μg (embryo)^−1: 170 μg (embryo)^−1
[1]; [7]
  TAG % d wt: 20 % d wt
  TAG μg (embryo)^−1: 170 μg (embryo)^−1
  TAG/TL %: 64%
  TL % d wt: 31 % d wt
  TL μg (embryo)^−1: 264 μg (embryo)^−1
[1]; ABA 32 μM, hydrated (H)
  TAG % d wt: 17 % d wt
  TAG μg (embryo)^−1: 130 μg (embryo)^−1
  TAG/TL %: 67%
  TL % d wt: 26 % d wt
  TL μg (embryo)^−1: 193 μg (embryo)^−1
[1]; ABA 12 μM, D (81% r.h.)
  Fatty acid composition of TAG (%) 18:2^b: 15.4%
  Fatty acid composition of TAG (%) ΣC-20, 22^c: 1.4%
[1]; ABA 12 μM, H
  Fatty acid composition of TAG (%) 18:2^b: 13.2%
  Fatty acid composition of TAG (%) ΣC-20, 22^c: 1.4%
[1]; ABA 16 μM, D (81% r.h.)
  Fatty acid composition of TAG (%) 18:2^b: 15.4%
  Fatty acid composition of TAG (%) ΣC-20, 22^c: 1.5%
[1]; ABA 16 μM, H
  Fatty acid composition of TAG (%) 18:2^b: 13.5%
  Fatty acid composition of TAG (%) ΣC-20, 22^c: 1%
[1]; ABA 24 μM, D (81% r.h.)
  Fatty acid composition of TAG (%) 18:2^b: 15%
  Fatty acid composition of TAG (%) ΣC-20, 22^c: 1.5%
[1]; ABA 24 μM, H
  Fatty acid composition of TAG (%) 18:2^b: 14.7%
  Fatty acid composition of TAG (%) ΣC-20, 22^c: 1.2%
[1]; ABA 32 μM, D (81% r.h.)
  Fatty acid composition of TAG (%) 18:2^b: 14.9%
  Fatty acid composition of TAG (%) ΣC-20, 22^c: 2.5%
[1]; ABA 32 μM, H
  Fatty acid composition of TAG (%) 18:2^b: 14.6%
  Fatty acid composition of TAG (%) ΣC-20, 22^c: 1.6%

## OC[C@@H](O)[C@@H](O)[C@H](O)[C@H](O)CO [Mannitol, mannitol]
[2]
  Mature embryos per replicate (± SE): 0
  recovery of mature embryos: did not result in recovery of any mature embryos

## OC[C@H]1O[C@@](CO)(O[C@H]2O[C@H](CO)[C@@H](O)[C@H](O)[C@H]2O)[C@@H](O)[C@@H]1O [Sucrose, sucrose]
[3]; 6% sucrose
  maturation frequencies, visual comparison: lower maturation frequencies
[3]; 9% sucrose
  growth, visual comparison: no growth
[2]
  Mature embryos per replicate (± SE): 0
  recovery of mature embryos: did not result in recovery of any mature embryos

From patent US6340594B1, “Production of desiccation-tolerant gymnosperm embryos” (CellFor, Inc., priority 1991, dated 2002)
